Measurements reported in ChEMBL document CHEMBL6120940, “Discovery of N-Aryl-N'-[4-(aryloxy)cyclohexyl]squaramide-Based Inhibitors of LXR/SREBP-1c Signaling Pathway Ameliorating Steatotic Liver Disease: Navigating the Role of SIRT6 Activation” (J Med Chem, 2024).
Active and inactive are the calls of the source. The calls are words filed in the database; no cut-off is given here.

Experiments:
[1] = Metabolic stability in rat liver microsomes at 1 uM measured after 30 mins in presence of NADPH regeneration system by LC-MS/MS analysis; assay type: ADME, Microsome; conditions: read-out: Stability
Mus musculus [2] = assay: Anti-lipogenic activity against high fat died induced male C57BL/6J mouse obesity model assessed as reduction liver tissue size at 15 mg/kg, po administered three times per week and measured for 5 weeks; assay type: functional, organism-based
Mus musculus [3] = assay: Anti-lipogenic activity against high fat died induced male C57BL/6J mouse obesity model assessed as reduction AST level in serum at 15 mg/kg, po administered three times per week and measured for 5 weeks; assay type: functional, organism-based
HepG2 [4] = assay: Downregulation of SREBP-1c expression level in nucleus of human HepG2 cells at 10 uM pretreated with compound for 30 mins followed by T0901317 addition and measured after 12 hrs by immunoblot analysis; assay type: functional, cell-based; conditions: time 12.5 hrs
HepG2 [5] = assay: Downregulation of SREBP-1c expression level in human HepG2 cells pretreated with compound for 30 mins followed by T0901317 addition and measured after 12 hrs by RT-qPCR analysis; assay type: functional, cell-based; conditions: dose 5-10 µM, time 12.5 hrs
Mus musculus [6] = assay: Anti-lipogenic activity against high fat died induced male C57BL/6J mouse obesity model assessed as downregulation of Fasn level at 15 mg/kg, po administered three times per week and measured after 5 weeks by RT-qPCT analysis; assay type: functional, organism-based
HepG2 [7] = assay: Downregulation of FASN gene expression in human HepG2 cells in presence of T0901317 by RNA sequencing analysis; assay type: functional, cell-based
HepG2 [8] = assay: Cytotoxicity against human HepG2 cells at 10 uM measured after 24 hrs by CCK-8 method relative to control; assay type: functional
Mus musculus [9] = assay: Anti-lipogenic activity against high fat died induced male C57BL/6J mouse obesity model assessed as reduction in liver weight at 15 mg/kg, po administered three times per week and measured for 5 weeks; assay type: functional, organism-based
Mus musculus [10] = assay: Anti-lipogenic activity against high fat died induced male C57BL/6J mouse obesity model assessed as downregulation of Ccl5 mRNA level at 15 mg/kg, po administered three times per week and measured after 5 weeks by RT-qPCT analysis; assay type: functional, organism-based
HepG2 [11] = assay: Downregulation of SREBP-1c expression level in human HepG2 cells at 10 uM pretreated with compound for 30 mins followed by T0901317 addition and measured after 12 hrs by immunocytochemical analysis; assay type: functional, cell-based; conditions: time 12.5 hrs
HepG2 [12] = assay: Downregulation of ACACA expression level in human HepG2 cells at 5 to 10 uM pretreated with compound for 30 mins followed by T0901317 addition and measured after 12 hrs by RT-qPCR analysis; assay type: functional, cell-based; conditions: dose 5-10 µM, time 12.5 hrs
HepG2 [13] = assay: Downregulation of LXR level in human HepG2 cells at 10 uM preincubated for 30 mins followed by OSS128167 addition and measured after 12 hrs; assay type: functional, cell-based; conditions: time 12.5 hrs
HepG2 [14] = assay: Downregulation of LXRalpha expression level in human HepG2 cell lysate at 10 uM preincubated with compound for 30 mins followed by T0901317 addition and measured after 24 hrs by immunoblot analysis; assay type: functional, subcellular; conditions: time 24.5 hrs
[15] = AUC infinity in 16 hrs fasted ICR mouse at 20 mg/kg, po measured upto 8 hrs by LC-MS/MS analysis; assay type: ADME, organism-based; conditions: in vivo
HepG2 [16] = assay: Downregulation of ACACA mRNA level in human HepG2 cells at 10 uM pretreated with compound for 30 mins followed by T0901317 addition and measured after 12 hrs by RT-qPCR analysis; assay type: functional, cell-based; conditions: time 12.5 hrs
[17] = Metabolic stability in mouse liver microsomes at 1 uM measured after 30 mins in presence of NADPH regeneration system by LC-MS/MS analysis; assay type: ADME, Microsome; conditions: read-out: Stability
Hepatocyte [18] = assay: Inhibition of Srebp-1c level in mouse hepatocyte at 10 uM preincubated with compound for 30 mins followed by T0901317 addition and measured after 12 hrs; assay type: functional, cell-based; conditions: time 12.5 hrs
Hepatocyte [19] = assay: Effect on Cpt1 gene expression in mouse hepatocyte; assay type: functional, cell-based
HepG2 [20] = assay: Activation of AMPK in human HepG2 cells assessed as increase in ratio of ACACA phosphorylation to total ACACA at 5 uM pretreated with compound for 30 mins followed by T0901317 addition and measured after 12 hrs by immunoblot analysis; assay type: cell-based; conditions: filed as activator, time 12.5 hrs
Hepatocyte [21] = assay: Effect on Acox-2 gene expression in mouse hepatocyte; assay type: functional, cell-based
HepG2 [22] = assay: Downregulation of SCD mRNA level in human HepG2 cells at 10 uM pretreated with compound for 30 mins followed by T0901317 addition and measured after 12 hrs by RT-qPCR analysis; assay type: functional, cell-based; conditions: time 12.5 hrs
Mus musculus [23] = assay: Anti-lipogenic activity against high fat died induced male C57BL/6J mouse obesity model assessed as downregulation of Cxcl10 mRNA level at 15 mg/kg, po administered three times per week and measured after 5 weeks by RT-qPCT analysis; assay type: functional, organism-based
HepG2 [24] = assay: Downregulation of ACLY gene expression in human HepG2 cells in presence of T0901317 by RNA sequencing analysis; assay type: functional, cell-based
CYP3A4 = CYP3A4 (Homo sapiens, UniProt P08684); assay: Inhibition of CYP3A4 in human liver microsomes at 10 uM using midazolam as substrate preincubated for 5 mins followed by NADPH generating system addition and measured after 15 mins relative to control; assay type: ADME, Microsome; conditions: probe midazolam, time 20 min
HepG2 [25] = assay: Downregulation of SCD mRNA level in human HepG2 cells at 10 uM pretreated with compound for 30 mins followed by GW2935 addition and measured after 12 hrs by RT-qPCR analysis; assay type: functional, cell-based; conditions: time 12.5 hrs
[26] = target: T1, Oxysterols receptor LXR-alpha (Homo sapiens) (UniProt Q13133); assay: Inhibition of LXRalpha in HEK293 cells expressing LXRE at 2.5 to 5 uM preincubated for 30 mins followed by T0901317 addition and measured after 24 hrs by Dual-glo luciferase assay; assay type: cell-based; conditions: dose 2.5-5 µM, time 24.5 hrs
T1 sequence (whole entry): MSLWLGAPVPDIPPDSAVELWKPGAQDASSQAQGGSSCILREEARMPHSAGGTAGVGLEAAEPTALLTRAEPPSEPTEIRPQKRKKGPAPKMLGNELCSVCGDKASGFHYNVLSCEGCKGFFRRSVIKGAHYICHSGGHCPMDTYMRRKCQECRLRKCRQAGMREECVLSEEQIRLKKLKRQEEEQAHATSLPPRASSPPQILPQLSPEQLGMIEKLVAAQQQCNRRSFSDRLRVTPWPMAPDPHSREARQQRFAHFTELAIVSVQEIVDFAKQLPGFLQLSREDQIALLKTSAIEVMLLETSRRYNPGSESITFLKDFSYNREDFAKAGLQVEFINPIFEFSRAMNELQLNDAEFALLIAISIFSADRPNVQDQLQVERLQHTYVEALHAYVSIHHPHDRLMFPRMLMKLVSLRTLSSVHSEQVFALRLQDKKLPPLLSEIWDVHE

Chain of CYP3A4 (P08684 whole entry): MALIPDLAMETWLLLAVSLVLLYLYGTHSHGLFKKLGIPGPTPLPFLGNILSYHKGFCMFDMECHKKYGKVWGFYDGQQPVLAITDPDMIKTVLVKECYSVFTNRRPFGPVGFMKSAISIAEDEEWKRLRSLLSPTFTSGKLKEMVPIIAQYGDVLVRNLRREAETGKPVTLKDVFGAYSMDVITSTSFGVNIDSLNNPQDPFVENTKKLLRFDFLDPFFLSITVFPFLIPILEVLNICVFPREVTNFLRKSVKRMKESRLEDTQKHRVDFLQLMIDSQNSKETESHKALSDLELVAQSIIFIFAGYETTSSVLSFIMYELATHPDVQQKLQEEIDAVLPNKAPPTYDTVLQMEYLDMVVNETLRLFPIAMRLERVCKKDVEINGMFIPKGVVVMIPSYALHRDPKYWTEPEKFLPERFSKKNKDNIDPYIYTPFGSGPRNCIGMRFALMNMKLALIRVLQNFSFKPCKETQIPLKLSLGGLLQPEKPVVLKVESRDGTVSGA

For COc1ccccc1Nc1c(N[C@H]2CC[C@H](Oc3ccc([N+](=O)[O-])cc3)CC2)c(=O)c1=O, which remaining at 0.5 h, 1 µM [1] is on record?
The remaining at 0.5 h, 1 µM was 32.5%.

And the Activity (Mus musculus [2])?
Its Activity is “Active”.

And the Activity (Mus musculus [3])?
The Activity was “Active”.

What about the Activity (HepG2 [4]) of the same molecule?
The Activity was “Active”.

And the Activity (HepG2 [5])?
The Activity was “Dose-dependent-effect”.

And the Activity (Mus musculus [6])?
Its Activity is “Active”.

What about the Activity (HepG2 [7]) of the same molecule?
Its Activity is “Active”.

What about the Activity (HepG2 [8]) of the same molecule?
The Activity was 90.3%.

And the Activity (Mus musculus [9])?
Its Activity is “Active”.

And the Activity (Mus musculus [10])?
Its Activity is “Active”.

And the Activity (HepG2 [11])?
Its Activity is “Active”.

And the Activity (HepG2 [12])?
The Activity was “Active”.

What about the Activity (HepG2 [13]) of the same molecule?
Its Activity is “inactive”.

And the Activity (HepG2 [14])?
Its Activity is “Active”.

What about the AUC(0-inf) [15] of the same molecule?
Its AUC(0-inf) is 2890 ng·h/mL.

And the Activity (HepG2 [16])?
The Activity was “Active”.

What about the remaining at 0.5 h, 1 µM [17] of the same molecule?
The remaining at 0.5 h, 1 µM was 46.9%.

What about the inhibition (Hepatocyte [18]) of the same molecule?
The inhibition was “Active”.

And the Activity (Hepatocyte [19])?
Its Activity is “inactive”.

What about the Activity (HepG2 [20]) of the same molecule?
The Activity was “Active”.

And the Activity (Hepatocyte [21])?
Its Activity is “inactive”.

And the Activity (HepG2 [22])?
The Activity was “Active”.

What about the Activity (Mus musculus [23]) of the same molecule?
The Activity was “Active”.

And the Activity (HepG2 [24])?
Its Activity is “Active”.

What about the inhibition at 0.25 h, 10 µM (CYP3A4) of the same molecule?
Its inhibition at 0.25 h, 10 µM is 91.6%.

And the Activity (HepG2 [25])?
The Activity was “Active”.

What about the inhibition [26] of the same molecule?
The inhibition was “Active”.
